≈ marks a conversion by molar mass, not a printed value.
Columns and labels:
Format in all cases: physicochemical
[1] = Solubility of linerixibat drug substance over pH 1.2-6.8 at 37±1° C. (Experiment 8a); details: for solubility at 1 h / solubility at 4 h / solubility at 24 h: 37 °C, thermodynamic from solid; for solubility at 1 h: 1-hr timepoint; for solubility at 4 h: 4-hr timepoint; for solubility at 24 h: 24-hr timepoint
Method: The solubility of linerixibat drug substance, in respect of Form I and Form III, was determined over the pH range of 1.2-6.8 at 37±1° C. Eight pH values within this range, including buffers at pH 1.2, 4.5 and 6.8 were evaluated. The therapeutic dose for linerixibat is 40 mg.
• SGF=simulated gastric fluid • BR=Britton Robinson

[2] = Solubility of drug substance samples in biorelevant media and sodium acetate buffer (Experiment 8b); details: for solubility at 1 h / solubility at 4 h / solubility at 24 h: thermodynamic from solid
Description: Solubility data was obtained for drug substance samples of linerixibat Form I, linerixibat Form III, and additionally for a sample of Form I compressed to 100 MPa which therefore contained an amount of Form III, in order to replicate typical forces encountered during tablet manufacture.
The media used for the drug substance samples were biorelevant media likely to be experienced in the stomach and the intestine, namely Simulated Gastric Fluid (SGF) over an increasing pH range (1.6, 2.0 and 4.0) and Fasted State Simulated Intestinal Fluid (FaSSIF) at a pH of 6.5. Solubility data was also obtained in 50 mM sodium acetate buffer pH 4.5.

[3] = Polymorph screen, relative stability of forms; details: relative to the other forms identified from the form screen
Method: Form I of linerixibat, a non-solvated crystalline form that melts with decomposition at onset temperature about 206° C. and peak temperature about 209° C., was identified as the predominant form of linerixibat from a polymorph screen study. Amorphous linerixibat and Form I were used as input material for polymorph screen experiments. […] Form I was obtained from a variety of screening samples, and the solvents used include water, methanol, ethanol, acetone, acetonitrile and ethyl acetate.

[4] = Miniaturised shake flask solubility in Britton-Robinson buffers and biorelevant media (Experiment 8c); details: 37° C., 1, 4 and 24 hours; FIG. 25
Method: Solubility of Form I and Form III was also measured in Britton-Robinson buffers (pH 2-8), determined and compared using a standardised miniaturised shake flask method via an automated platform using a development HPLC method for quantification post centrifugation and filtration. Samples were run at 37° C. and performed as 2 replicate preparations for each pH condition and 4 replicate preparations for each biorelevant media condition at 1, 4 and 24 hours.

[5] = Conversion of Form I to Form III under mechanical stress / tablet compression (13C SSNMR, XRPD); details: one manufacturing batch of Form I after the final (agitated) drying step; qualitative assessment by 13C SSNMR and XRPD
Description: Upon investigation, this occurrence was attributed to a combination of a relatively large batch size in a smaller filter drier (agitated drying stage) resulting in the wet material being subjected to greater shear forces during agitation, causing some conversion of Form I to Form III. Conversion of Form I to Form III was also observed during tablet compression process. […] During formulation development, samples of the linerixibat compression blend were compacted in a device to mimic the full-scale tableting process. X-ray powder diffractograms (XRPD) were obtained on these “compacts.” As the compression force was increased, the XRPD pattern changed to give loss of intensity of some peaks and formation of other peaks. This indicated the presence of another solid state form, which was subsequently confirmed as Form III. […] The intensities of Form I and Form III peaks in the ^13C SSNMR spectrum qualitatively indicate similar populations of the two polymorphic forms in the sample of mixture. The ^13C SSNMR data were acquired using the same apparatus and conditions as Example 1e.
^13C SSNMR data for linerixibat tablets, 90 mg of Form I compressed with different forces to achieve three different tensile strengths 1.6 MPa, 2.4 MPa and 3.2 MPa, were collected. The ^13C SSNMR data were acquired using the same apparatus and conditions as Example 1e. […]

[6] = Britton Robinson buffer, pH 3, aqueous buffer, nominal pH 3.0, BR buffer
[7] = Britton Robinson buffer, pH 3.5, aqueous buffer, nominal pH 3.5, BR buffer
[8] = Britton Robinson buffer, pH 3.8, aqueous buffer, nominal pH 3.8, BR buffer
[9] = Britton Robinson buffer, pH 4, aqueous buffer, nominal pH 4.0, BR buffer
[10] = Britton Robinson buffer, pH 5, aqueous buffer, nominal pH 5.0, BR buffer
[11] = acetate buffer, pH 4.5, aqueous buffer, nominal pH 4.5, Acetate buffer
[12] = phosphate buffer, pH 6.8, aqueous buffer, nominal pH 6.8, Phosphate buffer
[13] = simulated gastric fluid (SGF), pH 1.2, simulated gastric fluid, nominal pH 1.2, SGF

CCCC[C@]1(CC)CS(=O)(=O)c2cc(CNC(CC(=O)O)CC(=O)O)c(OC)cc2[C@@H](c2ccccc2)N1 [Form I]
solubility at 1 h [1, 6]: 178 µg/mL (≈ 326 µM) | solubility at 4 h [1, 6]: 198 µg/mL (≈ 362 µM) | solubility at 24 h [1, 6]: 232 µg/mL (≈ 424 µM) | solubility at 1 h [1, 7]: 99 µg/mL (≈ 181 µM) | solubility at 4 h [1, 7]: 110 µg/mL (≈ 201 µM) | solubility at 24 h [1, 7]: 128 µg/mL (≈ 234 µM) | solubility at 1 h [1, 8]: 104 µg/mL (≈ 190 µM) | solubility at 4 h [1, 8]: 113 µg/mL (≈ 207 µM) | solubility at 24 h [1, 8]: 131 µg/mL (≈ 240 µM) | solubility at 1 h [1, 9]: 118 µg/mL (≈ 216 µM) | solubility at 4 h [1, 9]: 125 µg/mL (≈ 229 µM) | solubility at 24 h [1, 9]: 146 µg/mL (≈ 267 µM) | solubility at 1 h [1, 10]: 393 µg/mL (≈ 719 µM) | solubility at 4 h [1, 10]: 491 µg/mL (≈ 898 µM) | solubility at 24 h [1, 10]: 650 µg/mL (≈ 1190 µM) | solubility at 1 h [1, 11]: 190 µg/mL (≈ 348 µM) | solubility at 4 h [1, 11]: 214 µg/mL (≈ 391 µM) | solubility at 24 h [1, 11]: 293 µg/mL (≈ 536 µM) | solubility classification ([1]; all pHs in the physiological range except close to the solubility minimum (between pH 3.2 and pH 4.2), high solubility = above 0.16 mg/mL (40 mg in 250 mL)): highly soluble | difference in solubility between Form I and Form III ([1]; pH 1.2-6.8, 37±1° C.): no significant difference | solubility at 1 h [1, 12]: > 1000 µg/mL | solubility at 4 h [1, 12]: > 1000 µg/mL | solubility at 24 h [1, 12]: > 1000 µg/mL | solubility at 1 h [1, 13]: > 1000 µg/mL | solubility at 4 h [1, 13]: > 1000 µg/mL | solubility at 24 h [1, 13]: > 1000 µg/mL | solubility at 1 h ([2]; 50 mM sodium acetate buffer, pH 4.5, aqueous buffer, 50 mM Sodium Acetate Buffer pH 4.5, 1 Hour): 270 µg/mL (≈ 494 µM) | solubility at 4 h ([2]; 50 mM sodium acetate buffer, pH 4.5, aqueous buffer, 50 mM Sodium Acetate Buffer pH 4.5, 4 Hours): 280 µg/mL (≈ 512 µM) | solubility at 24 h ([2]; 50 mM sodium acetate buffer, pH 4.5, aqueous buffer, 50 mM Sodium Acetate Buffer pH 4.5, 24 Hours): 300 µg/mL (≈ 549 µM) | solubility at 1 h ([2]; Fasted State Simulated Intestinal Fluid (FaSSIF), pH 6.5, fassif, FaSSIF pH 6.5, 1 Hour): 5080 µg/mL (≈ 9290 µM) | solubility at 4 h ([2]; Fasted State Simulated Intestinal Fluid (FaSSIF), pH 6.5, fassif, FaSSIF pH 6.5, 4 Hours): 5110 µg/mL (≈ 9350 µM) | solubility at 24 h ([2]; Fasted State Simulated Intestinal Fluid (FaSSIF), pH 6.5, fassif, FaSSIF pH 6.5, 24 Hours): 5310 µg/mL (≈ 9710 µM) | solubility at 1 h ([2]; Simulated Gastric Fluid (SGF), pH 1.6, simulated gastric fluid, SGF pH 1.6, 1 Hour): 7200 µg/mL (≈ 13200 µM) | solubility at 4 h ([2]; Simulated Gastric Fluid (SGF), pH 1.6, simulated gastric fluid, SGF pH 1.6, 4 Hours): 7390 µg/mL (≈ 13500 µM) | solubility at 24 h ([2]; Simulated Gastric Fluid (SGF), pH 1.6, simulated gastric fluid, SGF pH 1.6, 24 Hours): 7910 µg/mL (≈ 14500 µM) | solubility at 1 h ([2]; Simulated Gastric Fluid (SGF), pH 2, simulated gastric fluid, SGF pH 2.0, 1 Hour): 1490 µg/mL (≈ 2730 µM) | solubility at 4 h ([2]; Simulated Gastric Fluid (SGF), pH 2, simulated gastric fluid, SGF pH 2.0, 4 Hours): 1530 µg/mL (≈ 2800 µM) | solubility at 24 h ([2]; Simulated Gastric Fluid (SGF), pH 2, simulated gastric fluid, SGF pH 2.0, 24 Hours): 1620 µg/mL (≈ 2960 µM) | solubility at 1 h ([2]; Simulated Gastric Fluid (SGF), pH 4, simulated gastric fluid, SGF pH 4.0, 1 Hour): 150 µg/mL (≈ 274 µM) | solubility at 4 h ([2]; Simulated Gastric Fluid (SGF), pH 4, simulated gastric fluid, SGF pH 4.0, 4 Hours): 150 µg/mL (≈ 274 µM) | solubility at 24 h ([2]; Simulated Gastric Fluid (SGF), pH 4, simulated gastric fluid, SGF pH 4.0, 24 Hours): 160 µg/mL (≈ 293 µM) | solubility comparison of the forms ([2]; all investigated physiologically relevant pH values (1.6 to 6.5)): Forms I and III have very similar solubilities at all investigated physiologically | relative stability of the form [3]: most stable form | solubility comparison in biorelevant media [4]: very similar | Form III content [5]: ≤ 10 % w/w
